These results are taken from paper PMC6073568, “Efficient Lead Finding, Activity Enhancement and Preliminary Selectivity Control of Nuclear Receptor Ligands Bearing a Phenanthridinone Skeleton” (International Journal of Molecular Sciences, 2018).

Each structure is given as a SMILES string. Read-outs that look alike come from different tables or passages of the source.

Assay [1] concerns the target T1, PR (Homo sapiens, UniProt P06401).
T1 sequence (P06401 1-933): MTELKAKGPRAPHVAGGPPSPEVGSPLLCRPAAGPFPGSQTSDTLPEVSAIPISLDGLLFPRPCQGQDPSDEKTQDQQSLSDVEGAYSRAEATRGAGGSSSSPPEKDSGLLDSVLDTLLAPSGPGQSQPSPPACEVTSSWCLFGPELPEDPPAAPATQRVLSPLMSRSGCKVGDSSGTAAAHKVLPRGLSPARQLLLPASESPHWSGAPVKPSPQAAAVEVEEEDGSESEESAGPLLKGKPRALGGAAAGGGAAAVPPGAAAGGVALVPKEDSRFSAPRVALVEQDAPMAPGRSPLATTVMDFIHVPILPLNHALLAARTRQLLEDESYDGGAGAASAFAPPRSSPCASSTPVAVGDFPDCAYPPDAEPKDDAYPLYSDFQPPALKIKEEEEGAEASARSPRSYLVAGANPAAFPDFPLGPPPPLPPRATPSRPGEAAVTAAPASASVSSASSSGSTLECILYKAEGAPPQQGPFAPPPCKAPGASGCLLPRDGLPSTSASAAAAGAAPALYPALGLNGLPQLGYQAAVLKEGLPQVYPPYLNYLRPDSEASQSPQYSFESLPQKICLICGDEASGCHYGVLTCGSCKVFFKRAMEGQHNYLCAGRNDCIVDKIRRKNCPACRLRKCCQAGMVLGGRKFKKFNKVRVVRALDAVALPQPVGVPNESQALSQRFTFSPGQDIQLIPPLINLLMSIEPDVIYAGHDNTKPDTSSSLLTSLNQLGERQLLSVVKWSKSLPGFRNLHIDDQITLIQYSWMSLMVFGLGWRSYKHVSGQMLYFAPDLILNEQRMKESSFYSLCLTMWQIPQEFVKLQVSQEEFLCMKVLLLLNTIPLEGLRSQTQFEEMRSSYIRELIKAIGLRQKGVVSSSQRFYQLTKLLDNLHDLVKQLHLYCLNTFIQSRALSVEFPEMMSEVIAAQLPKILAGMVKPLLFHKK
The following applies: alkaline phosphatase, T47D cells, progesterone 1 nM; read-out: PR antagonistic activity (IC50); cited from earlier work.

The target of assay [2] is T2, LXRα (Homo sapiens, UniProt Q13133).
T2 construct: CMX-GAL4N-hLXRα-LBD; expressed in transfected cells; host or cells: HEK293
T2 sequence (Q13133 209-447 limits assumed): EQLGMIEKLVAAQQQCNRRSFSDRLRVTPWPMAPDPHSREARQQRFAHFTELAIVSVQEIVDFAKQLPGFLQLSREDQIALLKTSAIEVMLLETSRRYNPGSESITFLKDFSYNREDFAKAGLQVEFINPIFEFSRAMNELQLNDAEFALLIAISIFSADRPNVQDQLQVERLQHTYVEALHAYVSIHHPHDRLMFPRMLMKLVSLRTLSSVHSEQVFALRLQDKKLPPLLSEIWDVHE
The assay is described as follows: LXRα reporter gene assay in HEK293. It counts as cell-based. The following applies: read-out: LXRα antagonistic activity (IC50).

Assay [3] concerns the target T3, LXRβ (Homo sapiens, UniProt P55055).
T3 construct: CMX-GAL4N-hLXRβ-LBD; expressed in transfected cells; host or cells: HEK293
T3 sequence (P55055 222-460 limits assumed): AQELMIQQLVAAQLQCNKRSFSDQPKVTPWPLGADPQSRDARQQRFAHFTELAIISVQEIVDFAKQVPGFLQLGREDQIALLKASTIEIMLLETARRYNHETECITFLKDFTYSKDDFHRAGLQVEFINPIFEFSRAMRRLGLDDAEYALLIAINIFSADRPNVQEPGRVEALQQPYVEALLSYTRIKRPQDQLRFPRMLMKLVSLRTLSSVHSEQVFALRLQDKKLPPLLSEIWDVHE
Description: LXRβ reporter gene assay in HEK293. The class given is cell-based. The conditions noted are these: read-out: LXRβ antagonistic activity (IC50).

The target in assay [4] is T4, AR (Homo sapiens, UniProt P10275).
T4 sequence (P10275 1-920): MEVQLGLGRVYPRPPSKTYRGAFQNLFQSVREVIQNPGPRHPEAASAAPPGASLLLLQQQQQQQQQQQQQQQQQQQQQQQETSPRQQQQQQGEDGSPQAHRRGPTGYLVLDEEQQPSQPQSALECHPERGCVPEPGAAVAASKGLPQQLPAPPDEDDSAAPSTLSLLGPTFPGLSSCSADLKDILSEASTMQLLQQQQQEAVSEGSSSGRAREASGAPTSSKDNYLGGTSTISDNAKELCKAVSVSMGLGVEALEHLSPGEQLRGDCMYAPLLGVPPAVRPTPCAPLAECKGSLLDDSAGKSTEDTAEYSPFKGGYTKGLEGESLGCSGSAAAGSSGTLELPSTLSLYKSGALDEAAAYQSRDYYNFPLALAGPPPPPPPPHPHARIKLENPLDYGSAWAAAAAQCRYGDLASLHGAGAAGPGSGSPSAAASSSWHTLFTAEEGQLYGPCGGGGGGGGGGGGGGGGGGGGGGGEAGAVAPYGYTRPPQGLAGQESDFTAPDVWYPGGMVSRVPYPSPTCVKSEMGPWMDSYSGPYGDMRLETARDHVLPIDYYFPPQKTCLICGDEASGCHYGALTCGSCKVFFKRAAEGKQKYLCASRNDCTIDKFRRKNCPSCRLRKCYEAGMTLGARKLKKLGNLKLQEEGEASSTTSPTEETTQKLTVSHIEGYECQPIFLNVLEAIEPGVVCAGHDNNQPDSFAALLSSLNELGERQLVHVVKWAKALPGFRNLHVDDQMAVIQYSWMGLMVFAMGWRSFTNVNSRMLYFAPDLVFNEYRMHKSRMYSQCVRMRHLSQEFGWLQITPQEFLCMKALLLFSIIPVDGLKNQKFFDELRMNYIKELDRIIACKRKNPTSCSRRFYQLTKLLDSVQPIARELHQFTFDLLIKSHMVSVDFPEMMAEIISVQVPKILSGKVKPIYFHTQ
The assay is described as follows: AR reporter gene assay in HEK293. The class given is cell-based. The conditions noted are these: for IC50: reporter gene assay, HEK293.

Assay [5] addresses T5, GR (Homo sapiens, UniProt P04150).
T5 construct: expressed in transfected cells; host or cells: HEK293
T5 sequence (P04150 1-777): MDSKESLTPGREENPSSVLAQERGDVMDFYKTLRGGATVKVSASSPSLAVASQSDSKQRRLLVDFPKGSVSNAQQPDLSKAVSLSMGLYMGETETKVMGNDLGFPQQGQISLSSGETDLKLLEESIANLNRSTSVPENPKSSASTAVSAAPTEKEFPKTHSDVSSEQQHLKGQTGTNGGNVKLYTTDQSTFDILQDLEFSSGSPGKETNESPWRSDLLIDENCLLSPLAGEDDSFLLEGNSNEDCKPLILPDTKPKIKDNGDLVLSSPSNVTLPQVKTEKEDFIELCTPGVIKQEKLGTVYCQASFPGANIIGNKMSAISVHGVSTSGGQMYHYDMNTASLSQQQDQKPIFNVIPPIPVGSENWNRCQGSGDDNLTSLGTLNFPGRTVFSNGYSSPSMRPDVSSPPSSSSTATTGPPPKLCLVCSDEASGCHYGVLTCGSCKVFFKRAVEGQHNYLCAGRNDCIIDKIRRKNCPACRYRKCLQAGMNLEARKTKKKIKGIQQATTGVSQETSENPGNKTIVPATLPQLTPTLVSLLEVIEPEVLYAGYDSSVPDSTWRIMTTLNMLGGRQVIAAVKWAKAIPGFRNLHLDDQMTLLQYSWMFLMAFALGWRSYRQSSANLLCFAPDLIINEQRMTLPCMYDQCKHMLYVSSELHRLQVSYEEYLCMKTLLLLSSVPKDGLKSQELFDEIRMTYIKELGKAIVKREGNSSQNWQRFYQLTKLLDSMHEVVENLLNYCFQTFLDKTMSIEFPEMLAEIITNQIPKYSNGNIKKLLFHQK
The assay is described as follows: GR reporter gene assay in HEK293. It counts as cell-based. The conditions noted are these: reporter gene assay, HEK293; agonist dexamethasone 1 nM; read-out: GR antagonistic activity (IC50). Background: A reporter such as luciferase makes a cellular process visible.

Assay [6] concerns the target T1, PR. The assay is described as follows: T-47D alkaline phosphatase assay (PR antagonism). The class given is cell-based. The conditions noted are these: compared with 7.
The mark [7] stands for this setting: agonist dihydrotestosterone 0.3 nM, read-out: AR antagonistic activity (IC50), AR reporter gene.

Consider `CCCCn1c(=O)c2ccc(Cl)cc2c2cc(C(O)(C(F)(F)F)C(F)(F)F)ccc21` [Compound 2], for which the IC50 – broadly, the concentration that inhibits the measured activity by half – was 4.3 µM in assay [1]; 9.2 µM in assay [2]; 0.88 µM in assay [3]; 5.2 µM in assay [4] (setting [7]); 10 µM in assay [5].

`CCCCn1c(=O)c2ccccc2c2cc(C(O)(C(F)(F)F)C(F)(F)F)ccc21` [Compound 12]: in assay [6], the “increase of PR activity” value is given as 6 fold. In addition, the IC50 amounted to 8.4 µM in assay [2]; 3.7 µM in assay [3]; 1.8 µM in assay [4] (setting [7]); 0.1 µM in assay [4] (read-out: AR antagonistic activity IC50); 7.4 µM in assay [5]. In assay [4], the “selectivity for AR over LXRs” value was around 50 fold. Also, the “selectivity for AR over PR” value in assay [4] is listed as “about 7.8 fold”. Also, the “selectivity for AR over RORs and GR” value in assay [4] was “more than 200 fold”. Further, the “increase of AR activity” value in assay [4] (compared with 7) is recorded as 9 fold.

Consider `CCCCn1c(=O)c2ccc(C(F)(F)F)cc2c2cc(C(O)(C(F)(F)F)C(F)(F)F)ccc21` [Compound 37], for which the IC50 is 4.2 µM in assay [1]; 7.1 µM in assay [2]; 4.4 ± 0.8 µM in assay [3]; above 20 µM in assay [4] (setting [7]); above 20 µM in assay [5].

Take `CCCCn1c(=O)c2ccc(C)cc2c2cc(C(O)(C(F)(F)F)C(F)(F)F)ccc21` [Compound 36]: the half-inhibitory concentration (IC50) in assay [1] was 3.7 µM; in assay [2] it was 12 µM; in assay [3], 3 µM; in assay [4] (setting [7]) it was 6.4 µM; in assay [5], 16 µM.
